From patent US20190282550A1, “METHOD OF TREATMENT” (The University of Melbourne, priority 2016, published 2019)

Legend:
HTR8 [1] = assay: xCELLigence placenta cell proliferation; type: cell-based; settings: for proliferation at 48 h post plating: compared to control
Procedure: The effect of vinorelbine on placenta cell (HTR8) proliferation was assessed using xCELLigence (C).

placenta cells (JEG3) = assay: Mouse xenograft model, placenta cells (JEG3) grafted subcutaneously
JEG3 = assay: MTS cell viability assay, JEG3 placenta cell line; type: cell-based
Procedure: (§1) The ability for vinorelbine to reduce placenta cell viability was assessed in two placenta cell lines (A;HTR8, B; JEG3) using a MTS cell viability assay.

placenta cells = assay: Apoptosis versus necrosis in placenta cells; type: cell-based
Procedure: Apoptosis incites less of an inflammatory response that may otherwise injure local tissues. In this Example, the number of apoptotic cells after treatment with vinorelbine is assessed.

[2] = system: first trimester placenta explants; assay: First trimester placenta explants, M30 cytodeath immunohistochemistry; type: cell-based, human; settings: compared to methotrexate±gefitinib
Procedure: First trimester placenta explants are prepared and treated with the same drugs as above. After culture cells are fixed in paraformadehyde and immunohistochemistry staining performed with an M30 cytodeath antibody (detects apoptotic cell death). hCG secretion in to the cell culture media will be measured.

[3] = oral, 60 mg/m^2 once a week; cited from earlier work
[4] = Mouse fertility breeding experiments; settings: 5 mg/kg intravenous to female mice 4 weeks prior to breeding
Procedure: Vinorelbine is administered by tail vein injection to wild type swiss mice. The drug (or vehicle controls) is administered by tail vein twice weekly (i.e. approximately mirroring the frequency of dosing for the xenograft studies). The middle dose that was effective in regressing tumor size (2.5 mg/kg) is to be used. After one month the mice are paired for breeding. It is proposed to sacrifice mice at about day 19 of pregnancy.
Parameters measured include 1) Number of fetuses' and implantations sites; 2) fetal crown rump length; 3) fetal weight; 4) placenta weights.

HTR8 [5] = assay: MTS cell viability assay, HTR8 placenta cell line; type: cell-based
Procedure: as §1

human Fallopian tubes = assay: Human Fallopian tubes treated ex vivo, western blot of apoptotic markers
Text: Fallopian tube cells are obtained from (non pregnant) women undergoing hysterectomy and explants prepared as previously published (Shaw et al. (2011) Am J Pathol 178(1):253-60). […] Investigators stain the explants with M30 antibody by immunohistochemistry (measures late apoptosis) and obtain tissue lysates and perform western blot to measure the following proteins involved in apoptosis (Elmore (2007) supra): Bcl-2, Bax, Bid and Bim and quantify by densiometric analysis.
Human Fallopian tubes were obtained at hysterectomy (from women of child-bearing age).

HTR8 cells [6] = system: HTR8 cells
HTR8 cells [7] = assay: FACs analysis of cell cycle progression; type: cell-based; settings: 1 μM and 10 μM
Procedure: The effect of Vinorelbine on cell cycle progression in HTR8 cells was assessed using FACs analysis (FIGS. 8A through G). […] The proportion of cells in G1, S and G2 is graphically represented in n=3 replicates (D).

[8] = system: primary first trimester placenta cells; assay: MTS cell viability assay, primary first trimester placenta cells (FIG. 1); type: cell-based, human
Procedure: For in vitro experiments, methotrexate and vinorelbine are administered at different doses (from 10 nM to 100,000 nM). When used, gefitinib is combined with methotrexate at 8 μM. Cells/tissues are treated for 24 hours and 48 hours. Methodology for the following standard techniques are: Tissue culture (Nilsson et al. (2013) Obstet Gynecol 122(4):737-44), RNA, qPCR, immunohistochemistry (Nilsson et al. (2013) supra; Onda et al. (2015) Hypertension:10.1161/hyptertensionaha.114.04781; Kaitu'u-Lino et al. Pregnancy Hypertension: An International Journal of Women's Cardiovascular Health 2014 placenta explants (Brownfoot et al. (2015) Hypertension), FACs sorting (Nilsson et al. (2013) supra), trophoblast purification ((Nilsson et al. (2013) supra; Onda et al. (2015) supra; Kaitu'u Lino et al. (2014) supra) and western blots (Onda et al. (2015) supra).
First trimester placenta tissue are obtained from women who are undergoing a termination of pregnancy. Placenta cells are purified as previously described (Nilsson et al. (2013) supra). They are treated with different doses (10-100,000 nM) of vinorelbine, methotrexate, methotrexate+gefitinib, gefitinib alone (and vehicle control). Cell viability is measured by MTS assay (see FIG. 1). To compare the relative potencies, the EC50 is calculated for the drugs (dose that induces 50% cell death).
VB doses were 10,000 times lower than MXT.

[9] = increasing doses, intravenously, vs. vehicle
[10] = western blot densitometry, n=3 tubes

Which “proliferation at 48 h post plating” value (HTR8 [1]) does the source give for `CN(Cc1cnc2nc(N)nc(N)c2n1)c1ccc(C(=O)N[C@@H](CCC(=O)O)C(=O)O)cc1` [methotrexate] here?
Its value is “no significant effect”.

Which “serum human chorionic gonadotropin (hCG) levels” value (placenta cells (JEG3); [9]) does the source give for `CCC1=C[C@@H]2CN(C1)Cc1c([nH]c3ccccc13)[C@@](C(=O)OC)(c1cc3c(cc1OC)N(C)[C@H]1[C@@](O)(C(=O)OC)[C@H](OC(C)=O)[C@]4(CC)C=CCN5CC[C@]31[C@@H]54)C2` [vinorelbine] here?
The value was “significantly reduced”.

What about the “tumor volume over time” value (placenta cells (JEG3); [9]) of the same compound?
Its value is “dose dependently reduced tumor volume over time”.

What about the tumor weight (placenta cells (JEG3); [9]) of the same compound?
Its tumor weight is “significantly reduced tumor weight”.

And the “regressing placenta cells in xenografted SCID mice” value (placenta cells (JEG3); proposed, compared to methotrexate±gefitinib)?
Its value is “more effective than methotrexate±gefitinib”.

And the cell viability (JEG3)?
Its cell viability is “significant dose dependent reduction in cell viability”.

And the “mode of placenta cell death” value (placenta cells)?
The value was “mainly by apoptosis rather than necrosis”.

And the “M30 staining of placenta explants” value [2]?
Its value is “more intense M30 staining of placenta explants at a lower doses”.

What about the neutropenia occurrence [3] of the same compound?
The neutropenia occurrence was 11%.

And the “crown to rump length” value [4]?
The value was “did not alter”.

And the fetal weight [4]?
The fetal weight was “did not alter”.

And the fetal/placenta ratio [4]?
The fetal/placenta ratio was “did not alter”.

And the litter size [4]?
Its litter size is “did not alter”.

And the “proliferation at 48 h post plating” value (HTR8 [1])?
Its value is “proliferation was reduced at 1, 10 and 100 μM”.

And the HTR8 proliferation (HTR8 [1]; xCELLigence, over time)?
The HTR8 proliferation was “reduced HTR8 proliferation in a dose-dependent manner”.

What about the cell viability (HTR8 [5]) of the same compound?
The cell viability was “significant dose dependent reduction in cell viability”.

What about the “markers of apoptosis in human Fallopian tubes” value (human Fallopian tubes; preliminary data) of the same compound?
Its value is “does not upregulate markers of apoptosis”.

What about the BAX protein expression (human Fallopian tubes; [10]) of the same compound?
Its BAX protein expression is “no effect”.

And the “BCL 2 protein expression” value (human Fallopian tubes; [10])?
Its value is “no effect”.

What about the “percentage of dead cells” value (HTR8 cells [6]) of the same compound?
Its value is “No significant changes”.

And the “percentage of live HTR8 cells” value (HTR8 cells [6])?
Its value is “significantly reduced”.

And the “percentage of apoptotic HTR8 cells” value (HTR8 cells [6]; Annexin V expression)?
The value was “significantly increased”.

What about the cell cycle progression (HTR8 cells [7]) of the same compound?
The cell cycle progression was “inhibits cell cycle progression, with cells arrested in the G2 phase of mitosis”.

And the “cells halted at G2” value (HTR8 cells [7]; compared to control, n=3 replicates)?
The value was “significantly more cells halted at G2”.

And the “inducing death of primary first trimester placenta cells” value ([8]; compared to methotrexate±gefitinib)?
Its value is “significantly more effective in inducing death”.

What about the “potency relative to methotrexate” value ([8]; placenta cell death) of the same compound?
The value was 1,000 to 10,000 times.
